Reference: PMC5458078, “Global mapping of CARM1 substrates defines enzyme specificity and substrate recognition” (Nature Communications, 2017)
Where two headings read alike, the source gives them in different places.

Experiments:
MCF7 cells = assay: Quantitative nanoLC-MS/MS (TMT) of ADMA-containing peptides, CARM1 KO vs parental; type: cell-based, human; set-up: Fold change KO/WT: scale not given here
MCF7 CARM1 KO cells = assay: Quantitative MS of ADMA-containing peptides in MCF7 CARM1 KO cells expressing CARM1 28-608 or CARM1 140-608, and in CARM1 KO; type: cell-based, human
[1] = ADMA-containing peptide, MCF7, CARM1 knockout (KO1-3) vs wild type (WT1-3), TMT 6-plex experiment #1
[2] = ADMA-containing peptide, CARM1 knockout (KO) vs wild type (WT) MCF7 cells, 6-plex TMT experiment #1, three biological replicates each, sheet "MCF7"
[3] = CARM1 140-608 versus WT, mean of three replicates (log2)
[4] = KO versus WT, mean of three replicates (log2)
[5] = CARM1 140-608 versus WT, difference of mean log2 values
[6] = CARM1 KO versus WT, difference of mean log2 values
[7] = MCF7, CARM1 KO (KO1-KO3) vs wild type (WT1-WT3)
[8] = MCF7, CARM1 KO vs WT, three biological replicates each
[9] = CARM1 140-608 vs WT, mean of 3 replicates, log2
[10] = KO vs WT, mean of 3 replicates, log2
[11] = CARM1 140-608 vs WT, mean of 3 replicates (log2 scale)
[12] = KO vs WT, mean of 3 replicates (log2 scale)
[13] = MCF7 CARM1 knockout vs wild type, 3 biological replicates each, values are on log2 scale
[14] = mean, CARM1 140-608 versus WT (log2 scale)
[15] = mean, CARM1 KO versus WT (log2 scale)
[16] = MCF7, CARM1 knockout vs wild type, n = 3 each
[17] = ratio on log2 scale, mean of 3 replicates
[18] = difference of log2 means, CARM1 140-608 vs WT
[19] = difference of log2 means, KO vs WT
[20] = log2 scale ratio, mean of n = 3

## GMYNQrYHCPVPK
MCF7 cells; [1]
  Fold change KO/WT: -2.857
MCF7 CARM1 KO cells
  CARM1 140-608/WT: -2.175
  KO/WT: -2.857

## LGHDPYrLGHDAYrLGQDPYrLGHDPYR
MCF7 cells; [1]
  Fold change KO/WT: -1.602
MCF7 CARM1 KO cells
  CARM1 140-608/WT: -1.775
  KO/WT: -1.602

## APESPPSADPALVAGPAEEAECPPPRQPQPAQNVLAAPrLR
MCF7 cells; [2]
  Fold change KO/WT: -1.431
MCF7 CARM1 KO cells; [3]
  CARM1 140-608/WT: -0.5501
MCF7 CARM1 KO cells; [4]
  KO/WT: -1.431

## SGSNWGrGSNMNSGPPR
MCF7 cells; CARM1 KO vs wild type MCF7 cells, 3 biological replicates each
  Fold change KO/WT: 0.3426
MCF7 CARM1 KO cells; [5]
  CARM1 140-608/WT: 0.2533
MCF7 CARM1 KO cells; [6]
  KO/WT: 0.9633

## ErDQLYYECYSDVSVHEEMIADR
MCF7 cells; [7]
  Fold change KO/WT: -0.1341
MCF7 CARM1 KO cells; [3]
  CARM1 140-608/WT: -0.3168
MCF7 CARM1 KO cells; [4]
  KO/WT: -0.6326

## EELLrHQLLEK
MCF7 cells; [8]
  Fold change KO/WT: -4.489
MCF7 CARM1 KO cells; [9]
  CARM1 140-608/WT: -4.245
MCF7 CARM1 KO cells; [10]
  KO/WT: -5.464

## GQPrTWLQSPV
MCF7 cells; [7]
  Fold change KO/WT: -3.17
MCF7 CARM1 KO cells; [11]
  CARM1 140-608/WT: -2.79
MCF7 CARM1 KO cells; [12]
  KO/WT: -3.17

## LGQDPYrLGHDPYR
MCF7 cells; [1]
  Fold change KO/WT: -1.973
MCF7 CARM1 KO cells
  CARM1 140-608/WT: -1.933
  KO/WT: -1.973

## FrHNIAYFPQIVSVAAR
MCF7 cells; [13]
  Fold change KO/WT: -0.6457
MCF7 CARM1 KO cells; [14]
  CARM1 140-608/WT: -0.3364
MCF7 CARM1 KO cells; [15]
  KO/WT: -0.6457

## GPVTPGGLPPrGLLGDAPNDPR
MCF7 cells; [16]
  Fold change KO/WT: -1.652
MCF7 CARM1 KO cells; [17]
  CARM1 140-608/WT: -1.495
  KO/WT: -1.652

## LINFQNHSPKPNGPVLPPHPQQLrYPPNQNIPrQAIKPNPLQMAFLAQQAIK
MCF7 cells; [1]
  Fold change KO/WT: -2.471
MCF7 CARM1 KO cells; [5]
  CARM1 140-608/WT: 0.7941
MCF7 CARM1 KO cells; [6]
  KO/WT: -2.136

## GGrGrGSLNHMVVDHRPK
MCF7 cells; [7]
  Fold change KO/WT: 0.3337
MCF7 CARM1 KO cells; [11]
  CARM1 140-608/WT: 0.3773
MCF7 CARM1 KO cells; [12]
  KO/WT: 0.3337

## AYGQQYWGQPGNrGGYRNFYDR
MCF7 cells; [13]
  Fold change KO/WT: 0.6249
MCF7 CARM1 KO cells; [14]
  CARM1 140-608/WT: -0.3814
MCF7 CARM1 KO cells; [15]
  KO/WT: 1.342

## VTrYPILGIPQAHR
MCF7 cells; [2]
  Fold change KO/WT: -1.789
MCF7 CARM1 KO cells; [18]
  CARM1 140-608/WT: -2.491
MCF7 CARM1 KO cells; [19]
  KO/WT: -2.966

## SVGQGYSVGQSMrLGLGGNAPVSIPQQSQSVK
MCF7 cells; [8]
  Fold change KO/WT: -2.576
MCF7 CARM1 KO cells; [9]
  CARM1 140-608/WT: -2.098
MCF7 CARM1 KO cells; [10]
  KO/WT: -2.576

## RAPVPVrGGPK
MCF7 cells; [13]
  Fold change KO/WT: 0.8174
MCF7 CARM1 KO cells; [14]
  CARM1 140-608/WT: 0.3236
MCF7 CARM1 KO cells; [15]
  KO/WT: 1.039

## MGTPVPrPPQDMGQIGVrTPLGPRVAAPVGPVGPTPTVLPMGAPVPrPR
MCF7 cells; [7]
  Fold change KO/WT: -3.625
MCF7 CARM1 KO cells; [11]
  CARM1 140-608/WT: -2.791
MCF7 CARM1 KO cells; [12]
  KO/WT: -3.834

## YCLTAPNYrLK
MCF7 cells; [1]
  Fold change KO/WT: -0.9585
MCF7 CARM1 KO cells; [20]
  CARM1 140-608/WT: -1.503
  KO/WT: -1.727

## QHLLLrGPPPGSANPPrLVSSYrLK
MCF7 cells; [13]
  Fold change KO/WT: -1.782
MCF7 CARM1 KO cells; [18]
  CARM1 140-608/WT: -1.091
MCF7 CARM1 KO cells; [19]
  KO/WT: -1.563

## MAPALSGANLTSPrVPLSAYER
MCF7 cells; [1]
  Fold change KO/WT: -4.135
MCF7 CARM1 KO cells; [20]
  CARM1 140-608/WT: -3.667
  KO/WT: -5.009

## QLrMQLQQrLQGQQFLNQSR
MCF7 cells; [2]
  Fold change KO/WT: -2.764
MCF7 CARM1 KO cells; [3]
  CARM1 140-608/WT: -0.1108
MCF7 CARM1 KO cells; [4]
  KO/WT: -1.926

## LGHDAYrLGQDPYR
MCF7 cells; [1]
  Fold change KO/WT: -1.081
MCF7 CARM1 KO cells
  CARM1 140-608/WT: -1.007
  KO/WT: -1.081

## LRGPGGPrGGLGGGMR
MCF7 cells; [16]
  Fold change KO/WT: -0.02725
MCF7 CARM1 KO cells; [14]
  CARM1 140-608/WT: 0.5472
MCF7 CARM1 KO cells; [15]
  KO/WT: 1.035

## QPVPFGLVrFGVAPDHPEVK
MCF7 cells; [16]
  Fold change KO/WT: -1.677
MCF7 CARM1 KO cells; [14]
  CARM1 140-608/WT: -1.417
MCF7 CARM1 KO cells; [15]
  KO/WT: -1.677

## FDGQPGQPSLLPrFDGLHGQPGPrFER
MCF7 cells; [2]
  Fold change KO/WT: -2.047
MCF7 CARM1 KO cells; [3]
  CARM1 140-608/WT: -1.6986
MCF7 CARM1 KO cells; [4]
  KO/WT: -2.399
